Source: patent US12285034B2, “Human and non-human animal use of microbial anaplerotic oil” (HELIAE DEVELOPMENT, LLC, priority 2017, dated 2025)
Read-outs that look alike come from different tables or passages of the source.

Tests used:
[1] = system: Aurantiochytrium acetophilum HS399; assay: Single vs two-stage fermentation with propionic acid (Example 12); type: cell-based; details: propionic acid fed
From the text: Further, in this implementation, during the lipid phase, no additional nitrogen is fed, and the cell accumulated the lipids. In the single stage mode, half of the nitrogen (2.5 g/L NH3) can be batch fed, while the other half (2.5 g/L NH3) can be fed along with the glucose until the end of the fermentation. In this implementation, both treatments receive substantially the same nutrients; however, the single stage mode grows and accumulates lipids in a coordinated way throughout the fermentation. The single stage system can be characterized by an early lipid accumulation. […] Each of the four treatments can be cultured in duplicate (n=2) fermenters. […] As illustrated, propionic acid slows down the growth on both systems, but the two-stage system provides a better growth rate than the single stage system in the presence of propionate. […] This implementation illustrates that the traditional two stage approach to lipid accumulation may be preferable to produce OCFAs.

[2] = system: Y. lipolytica; assay: Model of cytoplasmic propionate in Yarrowia lipolytica; details: 2 g/L d propionic fed, pH 3
From the text: In this aspect, while the propionate and free proton form enters the microalgae cell through a monocarboxylic symport structure, propionic acid is membrane permeable and may be diffused directly into the microalgae cell. Therefore, in this aspect, the uptake of propionate can be controlled by the cell, and the uptake of propionic acid may not be controlled by the cell. As an example, the uncontrolled uptake of propionic acid presumably lowers the internal Aurantiochytrium cell pH; in turn, the cell attempts to maintain its pH homeostasis by pumping protons out of the cell. […] In one implementation, the change in pH may be calculated with the following equation derived from the Henderson and Hasselbalch equation: […]
In these implementations, the results illustrate that growth of the Y. lipolytica may not be affected by up to 2 g/L d propionic fed despite the low pH (3) present.

[3] = system: Aurantiochytrium acetophilum HS399; details: for OCFA / Total Fatty Acids: 73 h, 10 L fermenter
Procedure: […] In this implementation, the pH can be maintained at 7±1 in respective treatments.
In one implementation, fermenters may be used to culture A. acetophilum HS399. […] In this implementation, two treatments using different cyanocobalamin concentrations (0.00185, 0 μM) are compared in duplicates.

In the case of `CCC(=O)O` [Propionate, propionic acid], the Productivity ([1]; single stage, 96 h) is reported as 20.7 g/L/day, the “Biomass Yield” value ([1]; single stage, batch time 96 h) is reported as 82.5 g/L and the Productivity ([1]; two stage, 89 h) is reported as 34.1 g/L/day. For the same molecule, the “Biomass Yield” value ([1]; two stage, batch time 89 h) was 125.8 g/L, the “accumulation of cytoplasmic propionate” value [2] was 328 g/L and the “less propionic acid consumed without cyanocobalamin” value ([3]; 10 L fermenters, pH-auxostat, 0 μM vs with cyanocobalamin) was 30%. The OCFA ([3]; cyanocobalamin 0 μM) was 52.0 % TFA, the “Total Fatty Acids” value ([3]; cyanocobalamin 0 μM) was 56.9 % DW and the OCFA ([3]; cyanocobalamin 0.37 μM) was 52.6 ± 0.5 % TFA. The “Total Fatty Acids” value ([3]; cyanocobalamin 0.37 μM) was 54.7 ± 0.5 % DW, the Propionate deposition ([3]; cyanocobalamin 0 μM) was 65.7% and the gpropionate/gbiomass ([3]; cyanocobalamin 0 μM) was 0.14. For the same molecule, the Propionate deposition ([3]; cyanocobalamin 0.37 μM) was 49.9%, the gpropionate/gbiomass ([3]; cyanocobalamin 0.37 μM) was 0.18 ± 0.01 and the “time in which initial propionate is consumed” value ([3]; initial 3 g/L, pH 7±1, flask) was no more than 72 h.
